Where a name gives a salt, the structure may show the parent alone.

Broadly, the melting point is the temperature of the solid-liquid transition. On to `C=C(C)CO[C@@H](C)CN1CC[C@@]2(C)c3cccc(O)c3C[C@@H]1C2(C)C` (as salt: hydrochloride), for which the melting point is 240 °C.
With `C=CCO[C@@H](C)CN1CC[C@@]2(C)c3cccc(O)c3C[C@@H]1C2(C)C` (as salt: hydrochloride), the melting point is 239 °C.
`C/C=C/CO[C@@H](C)CN1CC[C@@]2(C)c3cccc(O)c3C[C@@H]1C2(C)C` (as salt: hydrochloride): the melting point was 205 °C.

The values above are taken from US6683089B2, “N-allyoxyethyl-1,2,3,4,5,6-hexahydro-2,6-methano-3-benzazocine-10-ols” (Boehringer Ingelheim Pharma GmbH & Co. KG, priority 2002, dated 2004).
